According to publication PMC4935606 (Organic & biomolecular chemistry, 2016):

Legend:
[1] = Spontaneous conversion of 1 to 13 under the assay conditions; format: physicochemical; conditions: 90 min, in the presence or absence of DTT
[2] = Side-by-side LCMS/UV solution stability study; format: physicochemical; conditions: 0.1 mg/mL in DMSO/H2O (5:1), within 24 h
[3] = test system: tumor cell; conditions: cited from earlier work
[4] = test system: cells; conditions: ref 7b; cited from earlier work
[5] = molecular target: recombinant human PTP4A3 (Homo sapiens, UniProt O75365); experiment: In vitro PTP4A3 phosphatase inhibition assay with DiFMUP substrate; format: biochemical
Sequence of recombinant human PTP4A3 (O75365 whole entry): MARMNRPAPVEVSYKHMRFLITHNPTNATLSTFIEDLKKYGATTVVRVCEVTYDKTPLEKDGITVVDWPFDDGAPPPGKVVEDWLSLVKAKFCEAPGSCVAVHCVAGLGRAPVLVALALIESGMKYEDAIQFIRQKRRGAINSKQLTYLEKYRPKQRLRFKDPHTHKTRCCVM

Spontaneous conversion of 1 to 13 [1]	Decomposition [2]	PTP4A3 inhibition (in words) ([5]; qualitative statement)	IC50 ([5]; read-out: IC50 [µM±S.D.], inhibition of PTP4A3 activity, n=3, DiFMUP 12 µM, 25 °C, 30 min, pH 7.0, 4 mM DTT)	SMILES	Inhibition of tumor cell anchorage-independent growth [3]	Short-term cytotoxicity in cells [4]
≤ 5%	> 80%	–	–	Nc1c[nH]c(=O)c2cc(-c3ccccc3)sc12 [Compound 1]	Significant inhibition	does not have any short-term cytotoxicity
–	–	remarkably less active than 1	> 80 µM	O=c1[nH]ccc2sc(-c3ccccc3)cc12 [Compound 12]	–	–
